Laboratory results published in patent US6395906B1, “Intermediates to pesticidal 1-arylpyrazoles” (Rhone-Poulenc Inc., priority 1995, dated 2002).

How the values were obtained:
Format in all cases: in vivo
[1] = tested on: black cutworm (Agrotis ipsilon); assay: Black cutworm systemic test (BCW-Sys); details: soil drench 10.0 ppm, corn seedling clipped ten days after treatment; mortality 4 days after infestation
Excerpt: (§1) For cotton aphid systemic tests and black cutwork—systemic tests, the water-acetone-DMF-emulsifier solution was adjusted for a treatment rate of 10.0 ppm soil concentration.
Black cutworm—systemic test (BCW-Sys): Corn seeds were placed on top of the soil surface in pots containing moist soil. The test compound solution was applied as a drench to the top of the soil and seeds for a treatment rate equivalent to 10.0 ppm soil concentration. As an untreated control, an aliquot of water-acetone-DMF-emulsifier solution containing no test compound was applied in a similar manner. The soil surface and seeds were covered with moist soil. The pots were held in the greenhouse for the duration of the bioassay. Ten days after treatment, the corn seedling was clipped and placed in a plastic cup with 2 late second to early third instar black cutworm larvae. Mortality was assessed visually 4 days after infestation.

[2] = tested on: southern root-knot nematode (Meloidogyne incognita); assay: Southern root-knot nematode (SRKN) soil test; details: soil treatment 23 kg/ha; tomato or cotton root galling rated after 2-3 weeks
Experimental: (§2) For the tick, aphids, souther armyworm, tobacco budworm, house fly, Mexican bean beetle, American cockroach, cat flea, souther corn rootworm, western corn rootworm, black cutworm, and southern root-knot nematode, a solution or suspension was prepared by adding the test compound to a solution of dimethylformamide, acetone, emulsifiers which are alkylaryl polyether alcohols organic sulfonates, and water. The result was a 100 or 500 ppm concentration of the test compound.
For the southern root-knot nematode tests, the water-acetone-DMF-emulsifier solution was adjusted for a treatment rate of 23 kg/ha soil concentration.
Southern root-knot nematode (SRKN): Eggs and second stage juveniles (J2s) of southern root-knot nematodes were obtained from infected roots of reared tomato plants. Pots containing moist soil were treated with the test compound solution for a treatment rate of 23 kg/ha. As an untreated control, an aliquot of a water-acetone-DMF-emulsifier solution containing no test compound was applied in a similar manner. Immediately after treatment, eggs or J2s of southern root-knot nematode were added to the treated soil. For test with cotton, the seeds were placed on top of the soil the day of treatment and inoculation. For the tests with tomato, the seedlings were transplanted in the pot three days after treatment. The pots were kept in the greenhouse for 2-3 weeks. At the termination of the test, roots of the tomato or cotton seedlings were evaluated for galling on a rating scale from 1 to 5 with one equal to severe galling, relative to untreated control, and five to no galling, i.e., complete control.

[3] = tested on: greenbug aphid (Schizaphis graminum); assay: Greenbug aphid systemic test (GA-Sys); details: soil drench 10 or 25 ppm, sorghum; aphid control rated one and three days after infestation
Excerpt: For the greenbug aphid systemic test, the water-acetone-DMF-emulsifier solution was adjusted for a treatment rate of 10 or 25 ppm soil concentration.
Greenburg aphid—systemic test (GA-Sys): Sorghum seeds were placed on top of the soil surface in pots containing moist soil. The test compound solution was applied as a drench to the top of the soil and seeds for a treatment rate equivalent to 10 or 25 ppm soil concentration. As an untreated control, an aliquot of a water-acetone-DMF-emulsifier solution containing no test compound was applied in a similar manner. The soil surface and seeds were covered with moist soil. The pots were held in the greenhouse for the duration of the bioassay. When the sorghum seeds germinated, greenbug aphids were sprinkled evenly over the sorghum pots to about 50 aphids per pot. The plants were rated for aphid control one and three days after infestation.

[4] = tested on: cotton aphid (Aphis gossypii); assay: Cotton aphid (CA) foliar spray test; details: cotton plants wet to runoff, 100 or 500 ppm; dead aphids counted after three days
Experimental: as §2
Buckthorn aphid (BA) or cotton aphid (CA): Adult and nymphal stages of buckthorn or cotton aphid were reared on potted dwarf nasturtium or cotton plants, respectively. Plants infested with 100-150 aphids were wet to runoff with the 100 or 500 ppm test compound formulation. As an untreated control, a water-acetone-DMF-emulsifier solution containing no test compound was also applied to runoff to infested plants. The treated plants were stored for one day for buckthorn aphid and three days for cotton aphid, after which the dead aphids were counted.

[5] = tested on: southern armyworm (Spodoptera eridania); assay: Southern armyworm (SAW) treated bean leaf test; details: bean leaves, 100 or 500 ppm; second instar larvae, five days
Experimental: as §2
(§3) Southern armyworm (SAW), Mexican bean beetle (MBB): Bean leaves were wet to runoff with the 100 or 500 ppm test compound formulation. As an untreated control, a water-acetone-DMF-emulsifier solution containing no test compound was also applied wet to runoff to bean leaves. Five or six randomly selected second instar southern armyworn larvae or Mexican bean bettle larvae were introduced into each plastic container with the dry treated leaves. The container was closed and held for five days. Larvae which were unable to move the length of the body, even upon stimulation by prodding, were considered dead.

[6] = tested on: tobacco budworm (Heliothis virescens); assay: Tobacco budworm (TBW) treated cotton leaf test; details: cotton leaves, 100 ppm; second instar larvae, five days
Experimental: as §2
Tobacco budworm (TBW): Cotton leaves were wet to runoff with the 100 ppm test compound formulation. As an untreated control, a water-acetone-DMF-emulsifier solution containing no test compound was also applied wet to runoff to cotton leaves. Ten randomly selected second instar tobacco budworm larvae were introduced into plastic containers in which moist dental wicks and the dry treated leaves had been placed. The cups were closed and held for five days. Larvae which were unable to move the length of the body, even upon stimulation by prodding, were considered dead.

[7] = tested on: house fly (Musca domestica); assay: House fly (HF) bait test; details: sucrose bait, 100 or 250 ppm; adult flies, mortality after 24 hours
Experimental: as §2
For house fly tests, the water-acetone-DMF-emulsifier solution was adjusted with a 20% by weight aqueous solution of sucrose to provide a final 100 or 250 ppm concentration of the test compound.
House fly (HF): Four to six day old adult house flies were used. The files were immobilized by anesthetizing with carbon dioxide. A bait cup was prepared which contained the 100 or 250 ppm test compound formulation/sucrose solution and one or two absorbent cotton pad(s). As an untreated control, a water-acetone-DMF-emulsifier-sucrose solution containing no test compound was applied in a similar manner. The bait cup was introduced inside the cage prior to admitting 12-25 anesthetized flies. Mortality was assessed after 24 hours.

[8] = tested on: American cockroach (Periplaneta americana); assay: American cockroach (ACR) treated food pellet test; details: food pellets with 500 ppm formulation; nymphs, contact and feeding mortality 1 and 5 days after infestation
Experimental: as §2
American cockroach (ACR): Cat food or dog food pellets were added to jars containing 1-2 mls of the 500 ppm test formulation. As an untreated control, an aliquot of a water-acetone-DMF-emulsifier solution containing no test compound was applied in a similar manner. After 48 hours, roach nymphs were added to the jar. Contact and feeding mortally was assessed 1 and 5 days after infestation.

[9] = tested on: western corn rootworm (Diabrotica virgifera virgifera); assay: Western corn rootworm (WCRW) soil test; details: soil concentration 0.15 or 0.5 ppm; neonate larvae, mortality six days after infestation
Experimental: as §2
For the western corn rootworm test, the water-acetone-DMF-emulsifier solution was adjusted for a treatment rate of 0.15 or 0.5 ppm.
Western corn rootworm (WCRW): The 500 ppm test formulation was applied to dry sandy loam soil contained in a glass jar for a soil concentration of 0.15 or 0.5 ppm. As an untreated control, an aliquot of a water-acetone-DMF-emulsifier solution containing no test compound was applied in a similar manner. After incubating covered for 24 hours, the soil was mixed and four germinated corn seedlings were added to the jar. Ten neonate western corn rootworm larvae were placed in the jar. Six days after infestation, mortality was assessed by Berlese funnel extraction.

[10] = tested on: southern corn rootworm (Diabrotica undecimpunctata howardi); assay: Southern corn rootworm (SCRW) soil test; details: soil concentration 2.5, 5, 6.75 or 10 ppm; mortality eight days after infestation
Experimental: as §2
For southern corn rootworm and black cutworm tests, the water-acetone-DMF-emulsifier solution was adjusted for a treatment rate of 2.5, 5, 6.75 or 10 ppm.
Southern corn rootworm (SCRW), Black cutworm (BCW): Corn seeds were placed in a glass jar and covered with dry sandy loam soil. The 500 ppm test formulation was applied for a soil concentration of 2.5, 5, 6.75 or 10 ppm. As an untreated control, an aliquot of a water-acetone-DMF-emulsifier solution containing no test compound was applied in a similar manner. After incubating covered for 24 hours, the soil was mixed and inoculated with approximately 25 southern corn rootworm eggs. Following an additional 48 hours, two late second to early third instar black cutworms were placed in the jar with a portion of insect diet. Eight days after infestation, mortality was assessed visually for cutworm and by Berlese funnel extraction for rootworm.

[11] = tested on: cotton aphid (Aphis gossypii); assay: Cotton aphid systemic test (CA-Sys); details: soil drench 10.0 ppm, aphid control rated three and six days after infestation
Excerpt: as §1
Cotton aphid—systemic test (CA-Sys): Cotton seeds were placed on top of the soil surface in pots containing moist soil. The test compound solution was applied as a drench to the top of the soil and seeds for a treatment rate equivalent to 10.0 ppm soil concentration. As an untreated control, an aliquot of a water-acetone-DMF-emulsifier solution containing no test compound was applied in a similar manner. The soil surface and seeds were covered with moist soil. The pots were held in the greenhouse for the duration of the bioassay. When the cotyledons of the cotton were expanded (approximately 7 days after planting), the cotton was infested with approximately 25 cotton aphids (mixed population). The plant were rated for aphid control three and six days after infestation.

[12] = tested on: Mexican bean beetle (Epilachna varivestis); assay: Mexican bean beetle (MBB) treated bean leaf test; details: bean leaves, 100 or 500 ppm; second instar larvae, five days
Experimental: as §2, §3

SMILES | BCW-Sys [1] | SRKN [2] | GA-Sys [3] | CA [4] | TBW [6] | ACR [8] | WCRW [9] | other results
CC(O)c1c(SC(F)(F)F)c(C#N)nn1-c1c(Cl)cc(C(F)(F)F)cc1Cl (centres unmarked) [Compound 8, 3-Cyano-1-(2,6-dichloro-4-trifluoromethylphenyl)-5-(1-hydroxy)ethyl-4-trifluoromethylthiopyrazole] | + (active against 1 or more insects described above up to 100% mortality. This activity is indicated by a “+”) | – | – | – | – | – | – | –
N#Cc1nn(-c2c(Cl)cc(C(F)(F)F)cc2Cl)c(CO)c1[S+]([O-])C(F)(F)F (centres unmarked) [Compound 12, 3-Cyano-1-(2,6-dichloro-4-trifluoromethylphenyl)-5-(hydroxy)methyl-4-trifluoromethylsulfinylpyrazole] | + (active against 1 or more insects described above up to 100% mortality. This activity is indicated by a “+”) | + (active against 1 or more insects described above up to 100% mortality. This activity is indicated by a “+”) | + (active against 1 or more insects described above up to 100% mortality. This activity is indicated by a “+”) | – | – | – | – | –
COC(C#N)c1c([S+]([O-])C(F)(F)F)c(C#N)nn1-c1c(Cl)cc(C(F)(F)F)cc1Cl (centres unmarked) [Compound 14, 3-Cyano-5-{(1-cyano-1-methoxy)methyl}-1-(2,6-dichloro-4-trifluoromethylphenyl)-4-trifluoromethylsulfinylpyrazole] | – | + (active against 1 or more insects described above up to 100% mortality. This activity is indicated by a “+”) | – | + (active against 1 or more insects described above up to 100% mortality. This activity is indicated by a “+”) | + (active against 1 or more insects described above up to 100% mortality. This activity is indicated by a “+”) | + (active against 1 or more insects described above up to 100% mortality. This activity is indicated by a “+”) | + (active against 1 or more insects described above up to 100% mortality. This activity is indicated by a “+”) | SAW [5]: + (active against 1 or more insects described above up to 100% mortality. This activity is indicated by a “+”); HF [7]: + (active against 1 or more insects described above up to 100% mortality. This activity is indicated by a “+”); SCRW [10]: + (active against 1 or more insects described above up to 100% mortality. This activity is indicated by a “+”)
N#Cc1nn(-c2c(Cl)cc(C(F)(F)F)cc2Cl)c(C(O)C(F)(F)F)c1SC(F)(F)F (centres unmarked) [Compound 17, 3-Cyano-1-(2,6-dichloro-4-trifluoromethylphenyl)-5-(1-hydroxy-2,2,2-trifluoroethyl)-4-trifluoromethylthiopyrazole] | – | – | – | – | – | + (active against 1 or more insects described above up to 100% mortality. This activity is indicated by a “+”) | + (active against 1 or more insects described above up to 100% mortality. This activity is indicated by a “+”) | CA-Sys [11]: + (active against 1 or more insects described above up to 100% mortality. This activity is indicated by a “+”)
C=C(OC(C)=O)c1c(S(=O)(=O)C(F)(F)F)c(C#N)nn1-c1c(Cl)cc(C(F)(F)F)cc1Cl [Compound 21, 3-Cyano-1-(2,6-dichloro-4-trifluoromethylphenyl)-5-(1-acetoxyethenyl)-4-trifluoromethylsulfonylpyrazole] | – | – | + (active against 1 or more insects described above up to 100% mortality. This activity is indicated by a “+”) | + (active against 1 or more insects described above up to 100% mortality. This activity is indicated by a “+”) | + (active against 1 or more insects described above up to 100% mortality. This activity is indicated by a “+”) | – | + (active against 1 or more insects described above up to 100% mortality. This activity is indicated by a “+”) | MBB [12]: + (active against 1 or more insects described above up to 100% mortality. This activity is indicated by a “+”)
